Measurements from patent US7495098B2, “Extraction of alkaloids from opium” (Mallinckrodt Inc, priority 2004, dated 2009).

Columns and labels:
[1] = Alkaloid partition coefficients, pH 9.0 (acetic acid opium extract and organic solvent, equal volumes)
Experimental: Some experiments were conducted with solvents to investigate liquid extraction to purify or separate the alkaloids. In these experiments, the aliquot of solvent layer was allowed to evaporate to dryness prior to diluting to volume with the dilute acetic acid. The aliquots were evaporated in this manner to eliminate the effect of solvents on retention time and the peak shape of the chromatography assays. Partition coefficients were obtained by dividing the concentration of the alkaloid in the organic layer by the concentration of the alkaloid in the aqueous layer. The disappearance of the rag layer following liquid extraction was done by filing a mixing container, e.g., cylinder, with the aqueous solution and the solvent. The mixing container, e.g., cylinder is then sealed with a stopper and shook for a predetermined time interval at a certain rate and then recording the interface levels over time.
The phases were allowed to separate, and aliquots of each layer were taken.

[2] = Stability of alkaloids in the acid digest of opium suspension at pH 3.0, room temperature; conditions: pH 3.0, up to 96 hours
Experimental: The purpose of Experiment I was to obtain side-by-side data of the performance of hydrochloric acid in relationship to acetic acid. The acid digestion occurred at room temperature for 96 hours. The opium suspensions were sampled at intervals, and assays were performed to test the rate of extraction of alkaloids from the opium.
The opium was dispersed by adding one liter of deionized water and 238 grams of opium to the blender. The blender was processed on “puree.” This is at 14,046 RPM, or a Reynold's number of 725,791 for two (2) minutes. The slurry was divided between two Erlenmeyer flasks. A tar ball remained in the bottom of the blender. The next step was to add 100 milliliters of water. The blender was then set to “liquefy.” This is at 20,495 RPM, or a Reynold's number of 991,216 for thirty (30) seconds. There was not an even distribution between the two Erlenmeyer flasks. This was followed by returning all of the slurry to the blender and processed on “liquefy” for an additional ten (10) seconds. The slurry was then split between the two Erlenmeyer flasks. The slurry was very frothy in appearance. The pH of each Erlenmeyer flask was adjusted to 3.0. In one Erlenmeyer flask, the pH was adjusted with hydrochloric acid (37%), and in the other Erlemneyer flask, the pH was adjusted with glacial acetic acid. […]

[3] = Alkaloid partition coefficients, pH 3.0 (mixing cylinder liquid extraction of opium filtrate, HPLC assay of layers); assay type: physicochemical
Excerpt: The next part of the experiment was to test various solvents to identify possible candidates for liquid extraction so that the alkaloids can be separated and purified. There was fifty (50) milliliters of filtrate and fifty (50) milliliters of solvent were charged to one hundred (100) milliliter mixing cylinders. The one hundred (100) milliliter cylinders were shaken for thirty (30) seconds at approximately one (1) shake per second. The one hundred (100) milliliter mixing cylinders were allowed to settle, and the locations of the bottom and top of the rag layer were recorded over time. The results for one trial of the hydrochloric acid extraction of opium is presented in Table 2, and the results of one trial of acetic acid extraction is presented in Table 3. The four solvents used were toluene, hexane, n-butanol (n-BuOH), and isopentyl alcohol (i-C5OH).
After the mixing cylinder studies were completed, the layers were sampled for High Pressure Liquid Chromatography (HPLC) assay and partition coefficients were obtained for each of the systems.

[4] = system BuOH/HCl (n-butanol, hydrochloric acid extract)
[5] = system BuOH/HOAc (n-butanol, acetic acid extract)
[6] = system CHCL3/HCl (chloroform, hydrochloric acid extract)
[7] = system CHCL3/HOAc (chloroform, acetic acid extract)
[8] = system I-pentyl/HCL (isopentyl alcohol, hydrochloric acid extract)
[9] = system I-pentyl/HOAc (isopentyl alcohol, acetic acid extract)

COc1ccc2c3c1O[C@H]1[C@@H](O)C=C[C@H]4[C@@H](C2)N(C)CC[C@@]341 [Codeine, codeine]
Alkaloid partition coefficient ([1]; system BuOH/HOAc): 18.9714 | Alkaloid partition coefficient ([1]; system Hexane/HOAc): 0.0735 | Alkaloid partition coefficient ([1]; system I-pentyl/HOAc): 19.6646 | Alkaloid partition coefficient ([1]; system Toluene/HOAc): 5.3686 | Stability (loss of alkaloid) in solution [2]: does not appear to be any significant loss | Alkaloid partition coefficient (concentration in organic layer / concentration in aqueous layer) [3, 4]: 0.1374 | Alkaloid partition coefficient (concentration in organic layer / concentration in aqueous layer) [3, 5]: 0.2277 | Alkaloid partition coefficient (concentration in organic layer / concentration in aqueous layer) [3, 6]: 0.0074 | Alkaloid partition coefficient (concentration in organic layer / concentration in aqueous layer) [3, 7]: 0.0341 | Alkaloid partition coefficient (concentration in organic layer / concentration in aqueous layer) [3, 8]: 0.0181 | Alkaloid partition coefficient (concentration in organic layer / concentration in aqueous layer) [3, 9]: 0.0319

CN1CC[C@]23c4c5ccc(O)c4O[C@H]2[C@@H](O)C=C[C@H]3[C@H]1C5 [Morphine, morphine]
Portion of morphine originally present that decomposed (after 24 hours, extraction with butanol at pH 9.0 (FIG. 3)): about half | Decomposition during the extraction step (alkaline extraction with n-butanol and i-pentyl alcohol, pH 9.0, room temperature): decomposed

COC1=CC=C2[C@H]3Cc4ccc(OC)c5c4[C@@]2(CCN3C)[C@H]1O5 [Thebaine, thebaine]
Alkaloid partition coefficient ([1]; system BuOH/HOAc): 34.7434 | Alkaloid partition coefficient ([1]; system Hexane/HOAc): 1.8589 | Alkaloid partition coefficient ([1]; system I-pentyl/HOAc): 55.5035 | Alkaloid partition coefficient ([1]; system Toluene/HOAc): 154.6710 | Stability (loss of alkaloid) in solution [2]: does not appear to be any significant loss | Alkaloid partition coefficient (concentration in organic layer / concentration in aqueous layer) [3, 4]: 0.4312 | Alkaloid partition coefficient (concentration in organic layer / concentration in aqueous layer) [3, 5]: 0.6351 | Alkaloid partition coefficient (concentration in organic layer / concentration in aqueous layer) [3, 6]: 0.5363 | Alkaloid partition coefficient (concentration in organic layer / concentration in aqueous layer) [3, 7]: 1.5273 | Alkaloid partition coefficient (concentration in organic layer / concentration in aqueous layer) [3, 8]: 0.1053 | Alkaloid partition coefficient (concentration in organic layer / concentration in aqueous layer) [3, 9]: 0.1548
